Where two headings read alike, the source gives them in different places.
Experiments:
[1] = target: opiate receptors isolated from rat brain; type: binding
Protocol: Opiate Binding Assay. The test compounds were evaluated for their ability to displace the binding of ^3 H-Naloxone to opiate receptors isolated from rat brain. Male rats [Crl CD(SD)BR] obtained from Charles River Laboratories (Portage, Mich.) were sacrificed by cervical dislocation. A purified homogenate of receptor membranes was prepared from the brains according to the method described by Chang and Cuatrecasas. (K.-J. Chang and P. Cuatrecasas. Multiple Opiate Receptors: Enkephalins And Morphine Bind To Receptors Of Different Specificity. J. Biol. Chem. 254, 2610-2618 (1979).) The brains were homogenized in 10 volumes of 0.32M sucrose and centrifuged twice at 6,000xg for 15 minutes. Following centrifugation of the supernatants at 40,000xg for 30 minutes, the pellets were resuspended in 5mM Tris-HCl and then centrifuged at 6,000xg. The supernatant was centrifuged at 40,000xg. This resuspended pellet (5mM Tris HCl) was centrifuged twice. The final pellet was resuspended in 2 volumes of 50 mM tris HCl (pH 7.4). The homogenate was assayed for protein content according to the method of Itzhaki and Gill. (R. F. Itzhaki and D. M. Gill. A Micro-Biuret Method for Estimating Proteins. Anal. Biochem. 9, 401-410 (1964).
The binding of the test compounds to the receptor membrane preparation was measured using a modification of the method of Pert and Snyder. (C. B. Pert and S. H. Snyder. Properties of Opiate-Receptor Binding in Rat Brain. Proc. Natl. Acad. Sci. 70, 2243-2247 (1973). The receptor assay was run using final concentrations of 1 nM ^3 -H-Naloxone and 0.5 mg/ml of homogenate protein.
Levorphanol (1×10^-5 M) was used as the displacer for non-specific binding. Final concentration of the test compounds was 10^-5 M. The assay was run in 0.05M tris HCl (pH 7.4). Total assay volume was 1.0 ml.
Samples were incubated at 25° C. for 60 min., filtered over Whatman GF/C glass fiber filters and rinsed twice with 4 ml washes of ice-cold buffer. The filters were air-dried at 50° C. for 30 minutes. After drying, 10 ml of PCS was added to the vial and the radioactivity determined using a tracor analytic Mark III liquid scintillation counter with a counting efficiency of 48.
The IC50 value, the concentration of the test compounds which inhibited ^3 H-Naloxone specific binding to the opiate receptor by 50, were obtained from log-logit plots of concentration-response curves.

[2] = test system: phenylbenzoquinone-induced writhing in mice; experiment: Writhing assay (phenylbenzoquinone); type: in vivo; conditions: 30 min before phenylbenzoquinone i.p.; for Writhing Mouse Oral: screening dose 10 mg/kg p.o. (intragastric); for Writhing Mouse Subc.: screening dose 10 mg/kg s.c.
Protocol: Writhing assay. Male Charles River albino mice (CD-1/HAM/1LR) weighing between 20 and 30 grams were used. Thirty minutes after subcutaneous or intragastric administration of the test compound (0.1 ml/10 gram body weight), 0.025(w/v) phenylbenzoquinone was injected intraperitoneally (0.1 ml/10 gram body weight). Five minutes later, each mouse was placed in a large glass beaker and the number of writhes that occurred in the subsequent ten minutes is counted. A writhe consisted of dorsoflexion of the back, extension of the hindlimbs, and strong contraction of the abdominal musculature. The test compound was considered to have produced analgesia in a mouse if the number of writhes elicited by phenylbenzoquinone was equal to or less than one-half the median number of writhes recorded for the saline-treated group that day. The results were expressed as the number of mice (out of a possible ten) in which the test compound produced analgesia. […] If the initial test dose of 10 mg/kg inhibited writhing in greater than 6 of IO mice, the effect of additional doses was evaluated and an ED50 value was calculated using a maximum likelihood function.

rat = conditions: injected directly into the brain of the rat; Belluzi et al., Nature 260, 625 (1976); cited from earlier work
[3] = inhibition of 1 nM 3H-Naloxone specific binding, rat brain membranes, screening concentration 10^-5 M

Row | Compound | IC50 [1, 3] [nM] | Writhing Mouse Oral [2] | Writhing Mouse Subc. [2] | Opiate Binding IC50 [1] | IC50 ([1]; read-out: Opiate Binding IC50) [nM] | IC50 ([1]; inhibition of 1 nM 3H-Naloxone specific binding, rat brain membranes, screening concentration 10^-5 M, monohydrochloride) [nM] | analgesic activity (rat)
1 | Cc1cc(OCc2ccccc2)cc(C)c1C[C@H](N)C(=O)N[C@H](C)C(=O)NCCCc1ccccc1.Cl [Example 27, 2,6-dimethyl-O-(phenylmethyl)-L-tyrosyl-N-(3-phenylpropyl)-D-alaninamide, monohydrochloride] | 360 | Active | Active |  |  |  | 
2 | COc1cc(C)c(CC(N)C(=O)N[C@H](C)C(=O)NCCCc2ccccc2)c(C)c1.Cl (mixture of isomers) [Example 2, 0,2,6-trimethyl-DL-tyrosyl-N-(3-phenylpropyl)-D-alaninamide, monohydrochloride] | 290 | Active | Active |  |  |  | 
3 | Cc1cc(O)cc(C)c1CC(N)C(=O)N(C)[C@H](C)C(=O)NCCCc1ccccc1.Cl (mixture of isomers) [Example 15, 2,6-dimethyl-DL-tyrosyl-Nα-methyl-N-(3-phenylpropyl)-D-alaninamide, monohydrochloride] | 0.6 | Active | Active |  |  |  | 
4 | COc1ccc(C[C@H](N)C(=O)N[C@H](C)C(=O)NCCCc2ccccc2)cc1.Cl [Example 9, 0-methyl-L-tyrosyl-N-(3-phenylpropyl)-D-alaninamide, monohydrochloride] |  | Active | Active | Inactive |  |  | 
5 | Cc1cc(OCc2ccccc2)cc(C)c1C[C@@H](N)C(=O)N[C@H](C)C(=O)NCCCc1ccccc1.Cl [Example 28, 2,6-dimethyl-O-(phenylmethyl)-D-tyrosyl-N-(3-phenylpropyl)-D-alaninamide, hydrochloride] | 22 | Active | Active |  |  |  | 
6 | Cc1cc(OC(C)C)cc(C)c1C[C@H](N)C(=O)N[C@H](C)C(=O)NCCCc1ccccc1.Cc1cc(OC(C)C)cc(C)c1C[C@H](N)C(=O)N[C@H](C)C(=O)NCCCc1ccccc1.Cc1cc(OC(C)C)cc(C)c1C[C@H](N)C(=O)N[C@H](C)C(=O)NCCCc1ccccc1.Cc1cc(OC(C)C)cc(C)c1C[C@H](N)C(=O)N[C@H](C)C(=O)NCCCc1ccccc1.Cl.Cl.Cl.Cl.Cl [Example 6, 2,6,dimethyl-0-(1-methylethyl)tyrosyl-N-(3-phenylpropyl)-D-alaninamide, hydrochloride (4:5)] |  | Inactive | Inactive |  | 47 |  | 
7 | Cc1cc(O)cc(C)c1CC(N)C(=O)N[C@H](C)C(=O)N(C)CCCc1ccccc1.Cl (mixture of isomers) [Example 16, 2,6-dimethyl-DL-tyrosyl-N-methyl-N-(3-phenylpropyl)-D-alaninamide, monohydrochloride] | 300 | Inactive | Active |  |  |  | 
8 | CN[C@@H](Cc1c(C)cc(O)cc1C)C(=O)N[C@H](C)C(=O)NCCCc1ccccc1.CN[C@@H](Cc1c(C)cc(O)cc1C)C(=O)N[C@H](C)C(=O)NCCCc1ccccc1.CN[C@@H](Cc1c(C)cc(O)cc1C)C(=O)N[C@H](C)C(=O)NCCCc1ccccc1.CN[C@@H](Cc1c(C)cc(O)cc1C)C(=O)N[C@H](C)C(=O)NCCCc1ccccc1.Cl.Cl.Cl.Cl.Cl [Example 14, N,2,6-trimethyltyrosyl-N-(3-phenylpropyl)-D-alaninamide, hydrochloride (4:5)] | 140 | Inactive | Active |  |  |  | 
9 | CN[C@@H](Cc1c(C)cc(O)cc1C)C(=O)N[C@H](C)C(=O)NCCCc1ccccc1.Cl [Example 13, N,2,6-trimethyltyrosyl-N-(3-phenylpropyl)-D-alaninamide, monohydrochloride] |  | Inactive | Active |  |  | 1800 | 
10 | 2,6,dichlorotyrosyl-N-(3-phenylpropyl)-D-alaninamide, monohydrochloride [Example 23] | 7.6 | Active | Active |  |  |  | 
11 | CN[C@@H](Cc1c(C)cc(OC)cc1C)C(=O)N[C@H](C)C(=O)NCCCc1ccccc1.Cl [Example 11, N,0,2,6,-tetramethyltyrosyl-N-(3-phenylpropyl)-D-alaninamide, monohydrochloride] | 610 | Active | Active |  |  |  | 
12 | COc1cc(C)c(C[C@H](N)C(=O)N[C@H](C)C(=O)NCCCc2ccccc2)c(C)c1 [Example 4, 0,2,6-trimethyltyrosyl-N-(3-phenylpropyl)-D-alaninamide] | 75 | Active | Active |  |  |  | 
13 | 0-ethyl-2,6-dimethyl-DL-tyrosyl-N-(3-phenylpropyl)-D-alaninamide, acetate (salt), hydrochloride (4:3:5; [Example 5] |  | Inactive | Active |  | 130 |  | 
14 | Cc1cc(C)c(C[C@H](N)C(=O)N[C@H](C)C(=O)NCCCc2ccccc2)c(C)c1.Cl [Example 25, 2,4,6-trimethylphenylalanyl-N-(3-phenylpropyl)-D-alaninamide, monohydrochloride] | 2000 | Inactive | Active |  |  |  | 
15 | methionine enkephalin |  |  |  |  |  |  | weak, fleeting analgesic activity
16 | COc1cc(C)c(C[C@H](N)C(=O)N[C@H](C)C(=O)NCCCc2ccccc2)c(C)c1 [Example 3, 0,2,6-trimethyltyrosyl-N-(3-phenylpropyl)-D-alaninamide] | 420 | Active | Active |  |  |  | 
17 | CNC(Cc1c(C)cc(OCc2ccccc2)cc1C)C(=O)N[C@H](C)C(=O)NCCCc1ccccc1.Cl (mixture of isomers) [Example 12, N,2,6-trimethyl-0-(phenylmethyl)-DL-tyrosyl-N-(3-phenylpropyl)-D-alaninamide, monohydrochloride] | 3600 | Active | Active |  |  |  | 

— patent US4760180A, “N-terminally substituted dipeptide amides” (priority 1986, dated 1988)
